Seven compounds from PubChem BioAssay (NCI) can be followed below.

Molecules are shown by their SMILES.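 1) Cells in 96-well plates. 2) Compound, 48 h, 5 concentrations. 3) Linear interpolation between surrounding doses. 4) Unreached endpoint = highest concentration. GI50 = concentration required for 50% inhibition of growth. At the TGI there is no net growth.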 A value given as a limit tells only on which side of the number the result lay.

Test systems include A498 renal; CAKI-1 renal; KM12 colon; NCI/ADR-RES ovarian; OVCAR-5 ovarian; RPMI-8226 leukemia; SK-MEL-2 melanoma; SK-MEL-28 melanoma; SN12C renal; U251 CNS.
Common to all, as to experiment: NCI tumour cell line growth inhibition, 48 h

Regarding `CC(C(=O)c1ccccc1)C(c1ccccc1)N1CCOCC1` (centres undefined), the TGI in the experiment with A498 renal, with CAKI-1 renal, in the experiment with KM12 colon, in the experiment on NCI/ADR-RES ovarian, with OVCAR-5 ovarian and in the experiment with RPMI-8226 leukemia was more than 100 µM throughout. Also, the TGI in the experiment with SK-MEL-2 melanoma, in the experiment on SK-MEL-28 melanoma, in the experiment on SN12C renal and in the experiment on U251 CNS was more than 100 µM throughout.
For `CCN(Cc1cccc(F)c1)c1ccc(CO)c(Cl)c1`, the GI50 in the experiment with A498 renal was 0.0356 µM; with CAKI-1 renal, 0.907 µM; in the experiment on KM12 colon, 22.1 µM; with NCI/ADR-RES ovarian, 15.9 µM; with OVCAR-5 ovarian it was 0.148 µM; in the experiment on RPMI-8226 leukemia, 5.98 µM. Moreover, the GI50 with SK-MEL-2 melanoma was 4.54 µM; in the experiment on SK-MEL-28 melanoma, 16.2 µM; in the experiment with SN12C renal, 14.6 µM; with U251 CNS it was 1.01 µM. The TGI is 0.169 µM in the experiment with A498 renal; more than 36.3 µM with CAKI-1 renal; more than 68.7 µM in the experiment with KM12 colon; 53.6 µM with NCI/ADR-RES ovarian; 0.605 µM in the experiment on OVCAR-5 ovarian; more than 56 µM in the experiment on RPMI-8226 leukemia. The TGI is 25.1 µM with SK-MEL-2 melanoma, 45.5 µM with SK-MEL-28 melanoma, more than 50.5 µM with SN12C renal and 26.5 µM with U251 CNS.
In the case of `COc1cc(OC)cc(N(CCNC(C)C)c2ccc3ncc(-c4cnn(C)c4)nc3c2)c1`, the TGI turned out to be 3.5 µM in the experiment with A498 renal; 13.3 µM with CAKI-1 renal; 21.8 µM in the experiment on KM12 colon; 22 µM in the experiment with NCI/ADR-RES ovarian; 19.8 µM with OVCAR-5 ovarian; 33.1 µM with RPMI-8226 leukemia. Further, the TGI with SK-MEL-2 melanoma stood at 25 µM; in the experiment on SK-MEL-28 melanoma, 24.3 µM; in the experiment with SN12C renal it was 15.9 µM; with U251 CNS, 19.6 µM. Also, the GI50 in the experiment on CAKI-1 renal is 2.8 µM; in the experiment on KM12 colon it was 7.53 µM; in the experiment with NCI/ADR-RES ovarian it was 5.8 µM; in the experiment on OVCAR-5 ovarian, 5.42 µM; in the experiment with RPMI-8226 leukemia it was 7.3 µM; with SK-MEL-2 melanoma, 7.31 µM. For the same compound, the GI50 was 10.9 µM in the experiment with SK-MEL-28 melanoma, 3.96 µM with SN12C renal and 4.32 µM in the experiment with U251 CNS.
For the compound `CO[C@H]1/C=C/O[C@@]2(C)Oc3c(C)c(O)c4c(c3C2=O)C(=O)C(/C=N/N(c2ccccc2)c2ccccc2)=C(NC(=O)/C(C)=C\C=C\[C@H](C)[C@H](O)[C@@H](C)[C@@H](O)[C@@H](C)[C@H](OC(C)=O)[C@@H]1C)C4=O`, the GI50 was 1.43 µM in the experiment on A498 renal; 1.72 µM in the experiment on CAKI-1 renal; 1.75 µM with KM12 colon; 2.4 µM in the experiment with NCI/ADR-RES ovarian; 1.83 µM in the experiment with OVCAR-5 ovarian; 1.43 µM in the experiment with RPMI-8226 leukemia. The GI50 is 1.86 µM in the experiment with SK-MEL-2 melanoma, 1.71 µM in the experiment on SK-MEL-28 melanoma, 1.82 µM in the experiment with SN12C renal and 1.86 µM with U251 CNS. Further, the TGI in the experiment with A498 renal was determined as 2.84 µM; in the experiment on CAKI-1 renal it was 3.38 µM; with KM12 colon, 3.24 µM; with NCI/ADR-RES ovarian, 5.31 µM; in the experiment with OVCAR-5 ovarian, 3.72 µM; in the experiment with RPMI-8226 leukemia it was 4.31 µM. Further, the TGI with SK-MEL-2 melanoma was determined as 3.6 µM; in the experiment with SK-MEL-28 melanoma, 3.36 µM; in the experiment with SN12C renal it was 3.33 µM; with U251 CNS, 3.4 µM.
As to `Cc1cc(=O)oc2cc(OC(=O)N(C)C)c(Cl)cc12`, the TGI with A498 renal, with CAKI-1 renal, with KM12 colon, in the experiment on NCI/ADR-RES ovarian, in the experiment with OVCAR-5 ovarian and in the experiment with RPMI-8226 leukemia was more than 100 µM throughout. Further, the TGI with SK-MEL-2 melanoma, in the experiment with SK-MEL-28 melanoma, in the experiment on SN12C renal and in the experiment with U251 CNS was more than 100 µM each time.
Consider `O=S(=O)(Nc1ccccc1Cl)c1ccc(-c2cnc(C3CC3)o2)cc1`, for which the GI50 was 0.0873 µM in the experiment with A498 renal; 0.321 µM in the experiment on CAKI-1 renal; 0.393 µM with KM12 colon; 0.314 µM with NCI/ADR-RES ovarian; 2.44 µM in the experiment with OVCAR-5 ovarian; 0.541 µM in the experiment on RPMI-8226 leukemia. Moreover, the GI50 in the experiment with SK-MEL-2 melanoma was 0.64 µM; in the experiment on SK-MEL-28 melanoma, 3.34 µM; with SN12C renal, 0.797 µM; with U251 CNS it was 0.583 µM. Further, the TGI in the experiment on A498 renal is 0.608 µM; in the experiment on CAKI-1 renal, 82 µM; in the experiment on KM12 colon, 32.4 µM; with NCI/ADR-RES ovarian, 65.9 µM; in the experiment on OVCAR-5 ovarian, more than 100 µM; in the experiment with RPMI-8226 leukemia, 22.7 µM. The TGI in the experiment with SK-MEL-2 melanoma, in the experiment with SK-MEL-28 melanoma, in the experiment on SN12C renal and in the experiment with U251 CNS was more than 100 µM each time.
Regarding `CCCNNC(=O)/C=C/c1ccc(CNCCc2c(C)[nH]c3ccccc23)cc1`, the GI50 in the experiment with A498 renal is 0.00955 µM; with CAKI-1 renal, 0.0369 µM; in the experiment on KM12 colon it was 0.0485 µM; with NCI/ADR-RES ovarian, 0.169 µM; with OVCAR-5 ovarian, 0.0116 µM; with RPMI-8226 leukemia it was 0.0101 µM. The GI50 in the experiment on SK-MEL-2 melanoma is 0.0342 µM; with SK-MEL-28 melanoma it was 0.0253 µM; with SN12C renal, 0.0634 µM; in the experiment on U251 CNS, 0.0306 µM. Further, the TGI with A498 renal is 0.0244 µM; with CAKI-1 renal, 0.123 µM; in the experiment on KM12 colon, 0.966 µM; in the experiment with NCI/ADR-RES ovarian, 2.29 µM; in the experiment on OVCAR-5 ovarian it was 0.191 µM; in the experiment with RPMI-8226 leukemia it was 0.337 µM. Further, the TGI in the experiment on SK-MEL-2 melanoma was 3.68 µM; in the experiment with SK-MEL-28 melanoma, 0.0964 µM; with SN12C renal, 3.76 µM; in the experiment on U251 CNS it was 0.207 µM.
